Assay results as given in patent US6355799B1, “Substituted benzene compounds, process for their preparation, and herbicidal and defoliant compositions containing them” (ISK Americas Incorporated, priority 1997, dated 2002).

Assays:
Assay type in all cases: in vivo
[1] = tested on: redroot pigweed (Amaranthus retroflexus, AMARE); assay: Pre-emerge test, greenhouse herbicide activity screening; details: pre-emerge, rated 14 days after application, 0 = no damage, 100 = complete death
Method in brief: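 Herbicidal damage is scored 0 (none) to 100 (complete plant death) two weeks after a simulated field spray. Rates span 15–1000 g ai/ha, delivered in acetone at 187 l/ha. For post-emergence treatments, plants have 2–3 leaves and the spray carries 0.25% v/v non-ionic surfactant.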

[2] = tested on: barnyardgrass (Echinochloa crus-galli, ECHCG); assay: as above; details: pre-emerge, rated 14 days after application, 0 = no damage, 100 = complete death
Method in brief: (§1)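 Sandy loam pots; pre-emerge: sown 1 d pre-spray, surface-watered after, then bottom-watered. Post-emerge: sown 8–21 d before, 2–3 leaf stage, + 0.25% v/v NIS, bottom-watered. Acetone, 187 l/ha track spray, 15–1000 g ai/ha. 0–100 injury score, day 14.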

[3] = tested on: green foxtail (Setaria viridis, SETVI); assay: as above; details: pre-emerge, rated 14 days after application, 0 = no damage, 100 = complete death
Method in brief: as §1

[4] = tested on: ivyleaf morningglory (Ipomoea hederacea, IPOHE); assay: as above; details: pre-emerge, rated 14 days after application, 0 = no damage, 100 = complete death
Method in brief: as §1

[5] = tested on: johnsongrass (Sorghum halepense, SORHA); assay: as above; details: pre-emerge, rated 14 days after application, 0 = no damage, 100 = complete death
Method in brief: as §1

[6] = tested on: lambsquarters (Chenopodium album, CHEAL); assay: as above; details: pre-emerge, rated 14 days after application, 0 = no damage, 100 = complete death
Method in brief: as §1

[7] = tested on: large crabgrass (Digitaria sanguinalis, DIGSA); assay: as above; details: pre-emerge, rated 14 days after application, 0 = no damage, 100 = complete death
Method in brief: as §1

[8] = tested on: sicklepod (Cassia obtusifolia, CASOB); assay: as above; details: pre-emerge, rated 14 days after application, 0 = no damage, 100 = complete death
Method in brief: as §1

[9] = tested on: velvetleaf (Abutilon theophrasti, ABUTH); assay: as above; details: pre-emerge, rated 14 days after application, 0 = no damage, 100 = complete death
Method in brief: as §1

[10] = tested on: field corn (Zea mays L., var. Dekalb 535, CORN); assay: Pre-emerge test, crop safety; details: pre-emerge, rated 14 days after application, 0 = no damage, 100 = complete death
Method in brief: as §1

[11] = tested on: upland rice (Oryza sp., var. Tebonnet, RICE); assay: Pre-emerge test, crop safety; details: pre-emerge, rated 14 days after application, 0 = no damage, 100 = complete death
Method in brief: as §1

[12] = tested on: barnyardgrass (Echinochloa crus-galli, ECHCG); assay: Post-emerge test, greenhouse herbicide activity screening; details: phytotoxicity rating 0-100 (0 no damage, 100 complete death), 14 days after application
Method in brief: (§2)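 Plants grown in 10 cm pots of sandy loam mix received acetone-dissolved compounds through a moving flat-fan nozzle. Doses ranged from 15 to 1000 g ai/ha. Pre-emerge pots were seeded one day earlier, post-emerge pots 8–21 days earlier. Fourteen days on, each pot was graded 0–100 for damage.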

[13] = tested on: common ragweed (Ambrosia artemisizfolia L., AMBEL); assay: as above; details: phytotoxicity rating 0-100 (0 no damage, 100 complete death), 14 days after application
Method in brief: as §2

[14] = tested on: green foxtail (Setaria viridis, SETVI); assay: as above; details: phytotoxicity rating 0-100 (0 no damage, 100 complete death), 14 days after application
Method in brief: as §2

[15] = tested on: ivyleaf morningglory (Ipomoea hederacea, IPOHE); assay: as above; details: phytotoxicity rating 0-100 (0 no damage, 100 complete death), 14 days after application
Method in brief: as §2

[16] = tested on: johnsongrass (Sorghum halepense, SORHA); assay: as above; details: phytotoxicity rating 0-100 (0 no damage, 100 complete death), 14 days after application
Method in brief: as §2

[17] = tested on: lambsquarters (Chenopodium album, CHEAL); assay: as above; details: phytotoxicity rating 0-100 (0 no damage, 100 complete death), 14 days after application
Method in brief: as §2

[18] = tested on: large crabgrass (Digitaria sanguinalis, DIGSA); assay: as above; details: phytotoxicity rating 0-100 (0 no damage, 100 complete death), 14 days after application
Method in brief: as §2

[19] = tested on: redroot pigweed (Amaranthus retroflexus, AMARE); assay: as above; details: phytotoxicity rating 0-100 (0 no damage, 100 complete death), 14 days after application
Method in brief: as §2

[20] = tested on: sicklepod (Cassia obtusifolia, CASOB); assay: as above; details: phytotoxicity rating 0-100 (0 no damage, 100 complete death), 14 days after application
Method in brief: as §2

[21] = tested on: velvetleaf (Abutilon theophrasti, ABUTH); assay: as above; details: phytotoxicity rating 0-100 (0 no damage, 100 complete death), 14 days after application
Method in brief: as §2

[22] = tested on: field corn (Zea mays L., var. Dekalb 535, CORN); assay: Post-emerge test, crop safety; details: phytotoxicity rating 0-100 (0 no damage, 100 complete death), 14 days after application
Method in brief: as §1

[23] = tested on: upland rice (Oryza sp., var. Tebonnet, RICE); assay: Post-emerge test, crop safety; details: phytotoxicity rating 0-100 (0 no damage, 100 complete death), 14 days after application
Method in brief: as §1

COc1c(Cl)cc(F)c(-n2c(=O)cc(C(F)(F)F)n(C)c2=O)c1N=C(Cl)C(Cl)(Cl)Cl [Compound 1-30]
10: Pre-emerge Herbicidal Activity SETVI (phytotoxicity rating, scale 0-100) ([3]; 63 g ai/ha) | Pre-emerge Herbicidal Activity SORHA (phytotoxicity rating, scale 0-100) ([5]; 250 g ai/ha) | Pre-emerge crop damage CORN (phytotoxicity rating, scale 0-100) ([10]; 250 g ai/ha) | Pre-emerge crop damage RICE (phytotoxicity rating, scale 0-100) ([11]; 63 g ai/ha) | Post-emerge Herbicidal Activity AMARE ([19]; 63 g ai/ha) | Post-emerge Herbicidal Activity CORN (crop damage) ([22]; 250 g ai/ha)
30: Pre-emerge crop damage RICE (phytotoxicity rating, scale 0-100) ([11]; 250 g ai/ha) | Post-emerge Herbicidal Activity AMARE ([19]; 250 g ai/ha) | Post-emerge Herbicidal Activity CASOB ([20]; 250 g ai/ha) | Post-emerge Herbicidal Activity ABUTH ([21]; 63 g ai/ha)
0: Pre-emerge Herbicidal Activity AMARE (phytotoxicity rating, scale 0-100) ([1]; 63 g ai/ha) | Pre-emerge Herbicidal Activity ECHCG (phytotoxicity rating, scale 0-100) ([2]; 63 g ai/ha) | Pre-emerge Herbicidal Activity ECHCG (phytotoxicity rating, scale 0-100) ([2]; 250 g ai/ha) | Pre-emerge Herbicidal Activity IPOHE (phytotoxicity rating, scale 0-100) ([4]; 63 g ai/ha) | Pre-emerge Herbicidal Activity SORHA (phytotoxicity rating, scale 0-100) ([5]; 63 g ai/ha) | Pre-emerge Herbicidal Activity DIGSA (phytotoxicity rating, scale 0-100) ([7]; 63 g ai/ha) | Pre-emerge Herbicidal Activity CASOB (phytotoxicity rating, scale 0-100) ([8]; 63 g ai/ha) | Pre-emerge crop damage CORN (phytotoxicity rating, scale 0-100) ([10]; 63 g ai/ha) | Post-emerge Herbicidal Activity ECHCG ([12]; 63 g ai/ha) | Post-emerge Herbicidal Activity ECHCG ([12]; 250 g ai/ha) | Post-emerge Herbicidal Activity AMBEL ([13]; 63 g ai/ha) | Post-emerge Herbicidal Activity SETVI ([14]; 63 g ai/ha) | Post-emerge Herbicidal Activity SETVI ([14]; 250 g ai/ha) | Post-emerge Herbicidal Activity SORHA ([16]; 63 g ai/ha) | Post-emerge Herbicidal Activity SORHA ([16]; 250 g ai/ha) | Post-emerge Herbicidal Activity CHEAL ([17]; 63 g ai/ha) | Post-emerge Herbicidal Activity DIGSA ([18]; 63 g ai/ha) | Post-emerge Herbicidal Activity DIGSA ([18]; 250 g ai/ha) | Post-emerge Herbicidal Activity CASOB ([20]; 63 g ai/ha) | Post-emerge Herbicidal Activity CORN (crop damage) ([22]; 63 g ai/ha) | Post-emerge Herbicidal Activity RICE (crop damage) ([23]; 63 g ai/ha)
85: Pre-emerge Herbicidal Activity CHEAL (phytotoxicity rating, scale 0-100) ([6]; 63 g ai/ha)
70: Pre-emerge Herbicidal Activity IPOHE (phytotoxicity rating, scale 0-100) ([4]; 250 g ai/ha) | Pre-emerge Herbicidal Activity CASOB (phytotoxicity rating, scale 0-100) ([8]; 250 g ai/ha) | Post-emerge Herbicidal Activity AMBEL ([13]; 250 g ai/ha)
100: Pre-emerge Herbicidal Activity SETVI (phytotoxicity rating, scale 0-100) ([3]; 250 g ai/ha) | Pre-emerge Herbicidal Activity CHEAL (phytotoxicity rating, scale 0-100) ([6]; 250 g ai/ha) | Pre-emerge Herbicidal Activity ABUTH (phytotoxicity rating, scale 0-100) ([9]; 250 g ai/ha) | Post-emerge Herbicidal Activity IPOHE ([15]; 250 g ai/ha) | Post-emerge Herbicidal Activity ABUTH ([21]; 250 g ai/ha)
20: Post-emerge Herbicidal Activity IPOHE ([15]; 63 g ai/ha) | Post-emerge Herbicidal Activity RICE (crop damage) ([23]; 250 g ai/ha)
90: Pre-emerge Herbicidal Activity DIGSA (phytotoxicity rating, scale 0-100) ([7]; 250 g ai/ha)
60: Pre-emerge Herbicidal Activity AMARE (phytotoxicity rating, scale 0-100) ([1]; 250 g ai/ha) | Post-emerge Herbicidal Activity CHEAL ([17]; 250 g ai/ha)
50: Pre-emerge Herbicidal Activity ABUTH (phytotoxicity rating, scale 0-100) ([9]; 63 g ai/ha)
